pIC50: −log10 of the molar value.
How the values were obtained:
HCV = assay: Suppression of virus in serum after about two weeks of administration; type: in vivo; settings: threshold of detectability
Tissue distribution = type: in vivo; settings: liver as well as extra-hepatic sites
[1] = system: HCV replicon (bicistronic subgenomic replicon, genotype 1b); assay: HCV replicon system, 72 hour assay in HuH-7 cells; type: cell-based
Text: Changes in replicon RNA level are compared to an internal control, such as cellular glyceraldehydes-3-phosphate dehydrogenas (GAPDH) messenger RNA levels, in a single-tube multiplex reaction. […] Therefore, it is contemplated that compound of Formula Ia administration to a subject in need thereof according to the present invention results in about a 0.5- to about 4.0-log decrease in viral load RNA levels, preferably about a 1.0- to about 3.0-log decrease in viral load RNA.
Replicon systems are well-established surrogates for viral replication as there is no HCV viral culture system. The HCV replicon is a non-infectious genotype 1b viral genome in which the sequences encoding the structural proteins at the 5′ end of the RNA have been replaced by a selectable marker, neoR.
NS3-mediated cleavage of the HCV polyprotein releases functional viral proteins essential for viral propagation. Therefore, blockage of NS3 protease activity by compound of Formula Ia is expected to inhibit viral replication in infected host cells.

[2] = Liver versus plasma concentration in monkeys (non-GLP assay); type: in vivo; settings: about 24 hours after dosing
Experimental: For the purpose of the present invention and the data presented herein, the liver to plasma ratio is calculated by determining the IC90 of a compound and inferring the concentration of the compound in the liver based on the concentration of the compound which causes a 90% decrease in viral load. […] It is known that concentrations of the compounds of Formulae I-XXVI in the liver of rats are about thirty to fifty times greater than plasma concentrations, whereas concentrations in the brain are below detection. In monkeys, concentration of the compound of Formula Ia determined by non-GLP assay of plasma sample taken about 24 hours after dosing of the compound was about five times greater in the liver than in plasma.

[3] = system: HCV-RNA viral load (genotype 1); assay: Example 3: pharmacodynamics, effect on HCV-RNA viral load; type: in vivo; settings: 400 mg TID
Experimental: Multiple escalating doses of compound of Formula Ia were administered for 14 days to HCV positive subjects who were genotype 1 Interferon-a (with or without ribavirin) non responders. In a randomized, placebo controlled, third party blind study, multiple doses of 100 mg BID, 200 mg BID, 400 mg BID, 400 mg TID, and 600 mg TID of compound of Formula Ia or placebo in a 3:1 ratio with or without food were evaluated. […]
Serial HCV-RNA data were evaluated for antiviral activity and for the change from baseline in the serum HCV RNA levels.

[4] = Pharmacokinetic parameter values on administration to a subject (summary); type: in vivo
Experimental: When the compounds are administered in fed subjects the bioavailability of the compound is increased about 100% and the mean Tmax of the compound of Formula Ia is increased about 60%.

[5] = Example 3: multiple-dose (14 days) pharmacokinetics in HCV positive subjects; type: in vivo, human
Experimental: Multiple escalating doses of compound of Formula Ia were administered for 14 days to HCV positive subjects who were genotype 1 Interferon-a (with or without ribavirin) non responders. In a randomized, placebo controlled, third party blind study, multiple doses of 100 mg BID, 200 mg BID, 400 mg BID, 400 mg TID, and 600 mg TID of compound of Formula Ia or placebo in a 3:1 ratio with or without food were evaluated.
• Group 1: Compound of Formula Ia 100 mg (2×50 mg) BID or matching placebo×14 days without food. • Group 2: Compound of Formula Ia 200 mg (2×100 mg) BID or matching placebo×14 days without food. • Group 3: Compound of Formula Ia 400 mg (4×100 mg) BID or matching placebo×14 days without food. • Group 4: Compound of Formula Ia 400 mg (4×100 mg) TID or matching placebo×14 days without food. • Group 5: Compound of Formula Ia 400 mg (4×100 mg) BID or matching placebo×14 days with food. • Group 6: Compound of Formula Ia 600 mg (6×100 mg) BID or matching placebo×14 days without food. • Group 7: Compound of Formula Ia 600 mg (6×100 mg) BID or matching placebo×14 days with food. • Group 8: compound of Formula Ia 600 mg (6×100 mg) TID or matching placebo×14 days without food. • Group 9: compound of Formula Ia intermediate dose or matching placebo×14 days with or without food.
Each subject was randomized to one treatment group. On Day 14, only the AM dose was administered.
For Cohorts Without Food: Treatments were administered on the morning (approximately 8 AM) of Days 1 and 14 following a 10 hour fast. Fasting continued until 4 hours postdose. Water was allowed during the fasting period. On the nonpharmacokinetic collection days (Days 2 through 13) breakfast and dinner were consumed either 90 minutes before or 90 minutes after each dose. All treatments were administered with approximately 240 mL of noncarbonated water. All doses on Days 1-14 were administered at approximately the same time each day, for cohorts with BID dosing study treatment were administered approximately 12 hours apart at 8 AM and 8 PM, and for cohorts with TID dosing study treatment were administered approximately 8 hours apart at 8 AM, 4 PM, and 12 Midnight.
For Cohorts With TID Dosing: All volunteers were dosed three times daily at approximately the same time each day; the doses were administered approximately 8 hours apart at 8 AM, 4 PM, and 12 Midnight.
For Cohorts With BID Dosing: All volunteers were dosed twice a day at approximately the same time each day. The doses were administered approximately 12 hours apart at 8 AM and 8 PM.
On Day 14, all subjects received only their assigned AM dose. During the dosing the capsule(s) were swallowed whole, not chewed or crushed. After dosing, the oral cavity was inspected to assure the volunteer had completely swallowed the capsule(s). […] Water was permitted throughout the fasting and nonfasting periods. […]
The plasma concentration data of compound of Formula Ia was used to estimate the following pharmacokinetic parameters: • Cmax—Maximum observed plasma concentration; • Tmax—Time of observed maximum plasma concentration; • AUC(O-t)—Area under the plasma concentration-time curve over the dosing interval • AUC (tf)—Area under the plasma concentration-time curve to the final quantifiable sample • CL/F—Apparent total body clearance. • t½—Terminal phase half life • Vd/F—Apparent volume of distribution • R—Accumulation ratio […]

[6] = human, plasma, oral, summary range, dose not stated

CC(C)(C)NC(=O)N[C@H](C(=O)N1C[C@H]2[C@@H]([C@H]1C(=O)NC(CC1CCC1)C(=O)C(N)=O)C2(C)C)C(C)(C)C (mixture of isomers) [Formula Ia, (1R,5S)-N-[3-Amino-1-(Cyclobutylmethyl)-2,3-Dioxopropyl]-3-[2(S)-[[[(1,1-Dimethylethyl)Amino]Carbonyl]Amino]-3,3-Dimethyl-1-Oxobutyl]-6,6-Dimethyl-3-Azabicyclo[3.1.0]Hexan-2(S)-Carboxamide]
virus level in serum (HCV): < 100 copies/ml | tissue distribution (Tissue distribution): distributes widely throughout the tissues of the body | pIC50 ([1]; Hepatitis C virus, Huh-7, 72 h, read-out: IC50 for suppression of the HCV replicon): ≥ 6.70 | IC90 ([1]; Hepatitis C virus, Huh-7, 72 h, read-out: IC90 for suppression of the HCV replicon): ≤ 400 nM | replicon RNA decrease compared with 6×IC90 ([1]; exposure to 12×IC90 (5 μM)): comparable results | concentration in liver relative to plasma [2]: about five | dose dependence of antiviral activity ([3]; 100 mg BID, 200 mg BID, 400 mg BID, all subjects): antiviral activity increased in a dose-related manner | viral load reduction from baseline, average minimum reduction ([3]; 14 days, genotype 1 interferon non responders): 2 logs | increase of bioavailability ([4]; fed subjects): about 100% | increase of mean Tmax ([4]; fed subjects): about 60% | Cmax [4, 6]: 50 to 800 ng/mL | Tmax [4, 6]: 1 to 5 h | Vd/F [4, 6]: 1500 to 6000 L | half-life [4, 6]: 2 to 15 h | AUC(0-t) ([4]; human, plasma, oral, summary range, dose not stated, read-out: AUC(0-8 hr)): 500 to 3000 ng·h/mL | mean accumulation ratio for BID dosing ([5]; BID dosing, 14 days): 1 | Cmax ([5]; Day 14, 400 mg BID without food, mean, n=11): 459 ng/mL | AUC(0-12 hr) ([5]; Day 14, 400 mg BID, mean, n=11): 1644 ng·h/mL | concentration at 11 day ([5]; human, plasma, multiple oral dosing, read-out: steady-state level (trough, Cmin)): ~200 ng/mL | time at which steady-state levels were reached ([5]; trough data (Cmin)): ~11 days
